Publication PMC7216583 (Parasites & Vectors, 2020)
Structures can show the parent of a compound that is named as a salt. Where two headings read alike, the source gives them in different places.

Columns and labels:
Akt1 = system: Akt1; set-up: method as in S-inhibitor; conditions: ref S-inhibitor; cited from earlier work
Akt2 = system: Akt2; set-up: method as in S-inhibitor; conditions: ref S-inhibitor; cited from earlier work
Akt3 = system: Akt3; set-up: method as in S-inhibitor; conditions: ref S-inhibitor; cited from earlier work
S6K = system: S6K; set-up: method as in S-inhibitor; conditions: ref S-inhibitor; cited from earlier work
[1] = system: Toxoplasma gondii RH-2F tachyzoites; test: microbe, parasite or virus in culture; conditions: 72 h
[2] = system: Toxoplasma gondii RH-2F tachyzoites; conditions: preliminary screen, mean
phosphodiesterase = molecular target: phosphodiesterase; set-up: method as in S-inhibitor; conditions: ref S-inhibitor; cited from earlier work
in vitro = conditions: human; for viability at 72 h: Host viability (%) mean
c-Met = system: c-Met; set-up: method as in S-inhibitor; conditions: ref S-inhibitor; cited from earlier work
Ron = system: Ron; set-up: method as in S-inhibitor; conditions: ref S-inhibitor; cited from earlier work
Tyro3 = system: Tyro3; set-up: method as in S-inhibitor; conditions: ref S-inhibitor; cited from earlier work
CDK1/cyclin B = system: CDK1/cyclin B; set-up: method as in S-inhibitor; conditions: ref S-inhibitor; cited from earlier work
CDK2/cyclin E = system: CDK2/cyclin E; set-up: method as in S-inhibitor; conditions: ref S-inhibitor; cited from earlier work
Abl = system: Abl; set-up: method as in library vendor description; conditions: ref library vendor description; cited from earlier work
Flt4 = system: Flt4; set-up: method as in S-inhibitor; conditions: ref S-inhibitor; cited from earlier work
HIV-1 IIIB = system: HIV-1 IIIB; set-up: method as in S-inhibitor; conditions: ref S-inhibitor; cited from earlier work
HIV-2 EHO = system: HIV-2 EHO; set-up: method as in S-inhibitor; conditions: ref S-inhibitor; cited from earlier work
HIV-2 ROD = system: HIV-2 ROD; set-up: method as in S-inhibitor; conditions: ref S-inhibitor; cited from earlier work
reverse transcriptase = conditions: read-out: IC50, reverse transcriptase; ref S-inhibitor; cited from earlier work
S6K1 = system: S6K1; set-up: method as in S-inhibitor; conditions: ref S-inhibitor; cited from earlier work
MSK1 = system: MSK1; set-up: method as in S-inhibitor; conditions: ref S-inhibitor; cited from earlier work
PKA = system: PKA; set-up: method as in S-inhibitor; conditions: ref S-inhibitor; cited from earlier work
PKBα = system: PKBα; set-up: method as in S-inhibitor; conditions: ref S-inhibitor; cited from earlier work
MAPKAP-K1b = system: MAPKAP-K1b; set-up: method as in S-inhibitor; conditions: ref S-inhibitor; cited from earlier work
VEGFR2 = system: VEGFR2; set-up: method as in S-inhibitor; conditions: ref S-inhibitor; cited from earlier work
PDGFRα = system: PDGFRα; set-up: method as in S-inhibitor; conditions: ref S-inhibitor; cited from earlier work
PDGFRβ = system: PDGFRβ; set-up: method as in S-inhibitor; conditions: ref S-inhibitor; cited from earlier work
VEGFR1 = system: VEGFR1; set-up: method as in S-inhibitor; conditions: ref S-inhibitor; cited from earlier work
ATM = system: ATM; set-up: method as in S-inhibitor; conditions: ref S-inhibitor; cited from earlier work
CDK4 = system: CDK4; set-up: method as in S-inhibitor; conditions: ref S-inhibitor; cited from earlier work
CDK6 = system: CDK6; set-up: method as in S-inhibitor; conditions: ref S-inhibitor; cited from earlier work
FAK = conditions: read-out: IC50, FAK; ref S-inhibitor; cited from earlier work
PDPK1 = molecular target: PDPK1; set-up: method as in S-inhibitor; conditions: ref S-inhibitor; cited from earlier work
[3] = system: LPS-induced TNF-α release; set-up: method as in S-inhibitor; conditions: ref S-inhibitor; cited from earlier work
D2S receptor = conditions: read-out: Ki, D2S receptor; ref S-inhibitor; cited from earlier work
D2L receptor = conditions: read-out: Ki, D2L receptor; ref S-inhibitor; cited from earlier work
D3 receptor = conditions: read-out: Ki, D3 receptor; ref S-inhibitor; cited from earlier work
D4 receptor = conditions: read-out: Ki, D4 receptor; ref S-inhibitor; cited from earlier work
[4] = system: voltage-gated sodium channels; set-up: method as in S-inhibitor; conditions: ref S-inhibitor; cited from earlier work
WT PFV IN = system: WT PFV IN; set-up: method as in S-inhibitor; conditions: ref S-inhibitor; cited from earlier work
S217Q PFV IN = system: S217Q PFV IN; set-up: method as in S-inhibitor; conditions: ref S-inhibitor; cited from earlier work
γ-secretase = molecular target: γ-secretase; set-up: method as in S-inhibitor; conditions: ref S-inhibitor, cited from earlier work
Notch signaling = system: Notch signaling; set-up: method as in S-inhibitor; conditions: ref S-inhibitor; cited from earlier work
(Na,K)-ATPase = molecular target: (Na,K)-ATPase; set-up: method as in S-inhibitor; conditions: one value printed for both enzymes; ref S-inhibitor; cited from earlier work
alkaline phosphatase = conditions: read-out: IC50, alkaline phosphatase; one value printed for both enzymes; ref S-inhibitor; cited from earlier work
GSK-3β = system: GSK-3β; set-up: method as in S-inhibitor; conditions: ref S-inhibitor; cited from earlier work
Tie2 = system: Tie2; set-up: method as in S-inhibitor; conditions: ref S-inhibitor; cited from earlier work
CFTR = system: CFTR; set-up: method as in S-inhibitor; conditions: ref S-inhibitor; cited from earlier work
[5] = system: cleavage of Tyr from Met-enkephalin; set-up: method as in S-inhibitor; conditions: ref S-inhibitor; read-out: IC50, inhibition of cleavage of Tyr from Met-enkephalin; cited from earlier work
[6] = read-out: Parasite inhibition (%) mean, preliminary screen, mean
[7] = read-out: Parasite inhibition (%) mean

Molecule: Clc1ccc(C2(c3ccc(-c4cn[nH]c4)cc3)CCNCC2)cc1 [AT7867]
- IC50 (Akt1): 32 nM
- IC50 (Akt2): 17 nM
- IC50 (Akt3): 47 nM
- IC50 (S6K): 85 nM
- inhibition of growth at 5 µM [1, 6]: 46.4%

Molecule: Cn1c(=O)c2[nH]cnc2n(C)c1=O.Cn1c(=O)c2[nH]cnc2n(C)c1=O.NCCN [Aminophylline (Truphylline)]
- Parasite inhibition (%) mean [2]: 0.8%
- IC50 (phosphodiesterase): 120000 nM

Molecule: CCOc1ccn(-c2ccc(F)cc2)c(=O)c1C(=O)Nc1ccc(Oc2ccnc(N)c2Cl)c(F)c1 [BMS 777607]
- viability at 72 h (in vitro): 72%
- IC50 (c-Met): 3.9 nM
- IC50 (Ron): 1.8 nM
- IC50 (Tyro3): 4.3 nM
- inhibition of growth at 5 µM [1, 6]: 80.6%

Molecule: CCCCOc1c(C(=O)c2c(F)cc(C)cc2F)c[nH]c2nncc1-2 [BMS-265246]
- IC50 (CDK1/cyclin B): 6 nM
- IC50 (CDK2/cyclin E): 9 nM
- inhibition of growth at 5 µM [1, 6]: 7.3%

Molecule: COc1cc(Nc2c(C#N)cnc3cc(OCCCN4CCN(C)CC4)c(OC)cc23)c(Cl)cc1Cl [Bosutinib (SKI-606)]
- inhibition of growth at 5 µM [1, 6]: 22.4%

Molecule: Cc1cc(Nc2cc(N3CCN(C)CC3)nc(/C=C/c3ccccc3)n2)n[nH]1 [ENMD-2076 L-(+)-Tartaric acid]
- viability at 72 h (in vitro; preliminary screen, mean): 35.5%
- IC50 (Flt4): 15.9 nM

Molecule: COc1cc2c(cc1Cc1cccc(Cl)c1F)c(=O)c(C(=O)O)cn2[C@H](CO)C(C)C [Elvitegravir (GS-9137)]
- IC50 (HIV-1 IIIB): 0.7 nM
- IC50 (HIV-2 EHO): 2.8 nM
- IC50 (HIV-2 ROD): 1.4 nM
- inhibition of growth at 5 µM [1, 6]: 0.7%

Molecule: Nc1nc(=O)n([C@@H]2CS[C@H](CO)O2)cc1F [Emtricitabine (Emtriva)]
- IC50 (reverse transcriptase): 27700 nM
- inhibition of growth at 5 µM [1, 7]: 0.4%

Molecule: O=S(=O)(NCCNC/C=C/c1ccc(Br)cc1)c1cccc2cnccc12 [H 89 2HCl, reference compound]
- viability at 72 h, 5 µM (in vitro; Host viability (%) Mean ± SD): 89.4 ± 4.6%
- viability at 72 h (in vitro): 89.4%
- IC50 (S6K1): 80 nM
- IC50 (MSK1): 120 nM
- IC50 (PKA): 135 nM
- IC50 (MAPKAP-K1b): 2800 nM
- inhibition at 5 µM ([1]; read-out: Parasite inhibition (%) Mean ± SD): 83.5 ± 1.8%

Molecule: CCCNC(=O)Nc1ccc(Oc2ncnc3cc(OC)c(OC)cc23)cc1Cl [KRN 633]
- viability at 72 h (in vitro): 70.6%
- IC50 (VEGFR2): 160 nM
- IC50 (PDGFRα): 965 nM
- IC50 (PDGFRβ): 9850 nM
- IC50 (VEGFR1): 170 nM
- inhibition of growth at 5 µM [1, 6]: 73.8%

Molecule: C[C@@H]1CN(CC(=O)Nc2ccc3c(c2)Cc2cccc(-c4cc(=O)cc(N5CCOCC5)o4)c2S3)C[C@H](C)O1 [KU-60019]
- IC50 (ATM): 6.3 nM
- inhibition of growth at 5 µM [1, 6]: 2%

Molecule: CC(=O)c1c(C)c2cnc(Nc3ccc(N4CCNCC4)cn3)nc2n(C2CCCC2)c1=O.O=S(=O)(O)CCO [PD 0332991 (Palbociclib) Isethionate]
- Parasite inhibition (%) mean [2]: 2.6%
- IC50 (CDK6): 16 nM

Molecule: CS(=O)(=O)c1cccc(CNc2nc(Nc3ccc4c(c3)CCC(=O)N4)ncc2C(F)(F)F)c1 [PF 573228]
- IC50 (FAK): 4 nM
- inhibition of growth at 5 µM [1, 6]: 5%

Molecule: CCCCCCCCCCCCc1ccc(S(=O)(=O)Nc2nncs2)cc1 [PHT-427]
- Ki (PDPK1): 5200 nM
- inhibition of growth at 5 µM [1, 6]: 35.7%

Molecule: Nc1cccc2c1C(=O)N(C1CCC(=O)NC1=O)C2=O (stereo not shown) [Pomalidomide]
- IC50 [3]: 13 nM
- inhibition of growth at 5 µM [1, 6]: 0.8%

Molecule: CCCN[C@H]1CCc2nc(N)sc2C1 [Pramipexole 2HCl monohydrate]
- Ki (D2L receptor): 2.2 nM
- Ki (D3 receptor): 0.5 nM
- Ki (D4 receptor): 5.1 nM
- inhibition of growth at 5 µM [1, 7]: -9.5%

Molecule: CCCOc1ccc(C(=O)OCCN(CC)CC)cc1N [Proparacaine HCl]
- ED50, voltage-gated sodium channels [4]: Proparacaine HCl is a voltage-gated sodium channels antagonist with ED50 of 3.4 mM.
- inhibition of growth at 5 µM [1, 6]: 2.4%

Molecule: Cc1nnc(C(=O)NC(C)(C)c2nc(C(=O)NCc3ccc(F)cc3)c(O)c(=O)n2C)o1 [Raltegravir (MK-0518)]
- IC50 (WT PFV IN): 90 nM
- IC50 (S217Q PFV IN): 40 nM
- inhibition of growth at 5 µM [1, 6]: 0.8%

Molecule: CC(C)[C@H](O)C(=O)N[C@@H](C)C(=O)N[C@H]1C(=O)N(C)CCc2ccccc21 [Semagacestat (LY450139)]
- IC50 (γ-secretase; Aβ38, read-out: IC50, γ-secretase, Aβ38): 12 nM
- IC50 (γ-secretase; Aβ40, read-out: IC50, γ-secretase, Aβ40): 12.1 nM
- IC50 (γ-secretase; Aβ42, read-out: IC50, γ-secretase, Aβ42): 10.9 nM
- IC50 (Notch signaling): 14.1 nM
- inhibition of growth at 5 µM [1, 6]: -9.8%

Molecule: [Na+].[Na+].[Na+].[O]=[V]([O-])([O-])[O-] [Sodium orthovanadate]
- Parasite inhibition (%) mean [2]: 31.8%
- IC50 ((Na,K)-ATPase): 10000 nM
- IC50 (alkaline phosphatase): 10000 nM

Molecule: Nc1cccc(-c2cc3c(Oc4cccc(O)c4)ncnc3[nH]2)c1 [TWS119]
- IC50 (GSK-3β): 30 nM
- inhibition of growth at 5 µM [1, 6]: 40.8%

Molecule: COc1ccc2cc(-c3[nH]c(-c4ccc([S+](C)[O-])cc4)nc3-c3ccncc3)ccc2c1 (stereo not shown) [Tie2 kinase inhibitor]
- IC50 (Tie2): 250 nM
- inhibition of growth at 5 µM [1, 6]: 13%

Molecule: Cc1ccc(NC(=O)C2(c3ccc4c(c3)OC(F)(F)O4)CC2)nc1-c1cccc(C(=O)O)c1 [VX-809]
- EC50 (CFTR): 100 nM
- inhibition of growth at 5 µM [1, 6]: 9.4%

Molecule: Bacitracin zinc
- Parasite inhibition (%) mean [2]: 9.0%
- IC50 [5]: 10000 nM
